# In patent US4067997A, “Synergistic microbecidal composition and method” (priority 1976, dated 1978):
# Legend:
# [1] = test system: nine gram-positive organisms and the yeast/fungus Candida; test: MIC, broth dilution, over all organisms (Examples I/II); format: cell-based; conditions: all except streptococcus Group D; from essentially as active up to
# Procedure: In order to establish comparative bactericidal and fungicidal results with homologous fatty acids, a series of experiments was performed with thirty straight-chain fatty acids and derivatives thereof. Eight different gram-negative and twelve different gram-positive organisms, representing a very broad spectrum of organisms, were used in these experiments including the fungus Candida (a yeast). Additionally, fatty acids were chosen to show the effects of saturation versus unsaturation, in the fatty acid claim. Standard solutions of the fatty acids and their derivatives were prepared by first dissolving the weighed compounds in 1 to 2 ml of 95% ethanol and immediately pouring this solution into 200 ml of Tripticase Soy Broth. These lipid compounds which are insoluble in water and broth precipitated into very small crystals or droplets. The tubes containing the suspension were warmed to approximately 70° C and were then placed in an ultrasonic tank for further solubilization of the lipid derivatives.
# Standard solutions (or suspensions) at 1,000 μg/ml were twofold serially diluted with additional broth to a concentration of 125 μg/ml. A 4-ml amount of each dilution was then quickly, and with constant agitation, dispensed into appropriately labeled screw-capped glass tubes (16 by 125 mm). The tubes were sterilized with steam at 15 psi for 15 minutes. After sterilization, all tubes were cooled and incubated overnight at 35° C to insure sterility.
# All compounds were compared on a molar (micromoles/milliliter) rather than on a mass basis. In the following lists of organisms used, those followed by a parenthetical number are registered with the American Type Culture Collection (ATCC); the remainder were isolates from Providence Hospital or Northland Laboratory.
# Staphylococcus aureus, S. epidermidis, beta-hemolytic streptococci (Group A and non-group A), group D streptococcus, Bacillus subtilis (6051), Sarcina lutea (9431), Micrococcus sp., Candida albicans, Nocardia asteroids (3308), Corynebacterium sp. (10700), and pneumococcus (63001).
# One drop (0.04 ± 0.01 ml) of an 18-hr broth culture containing 10^7 and 10^9 organisms/ml was added to each dilution of the test compound, as well as to a tube of plain broth which served as the positive control. After inoculation, the contents of each tube were well mixed, and the tubes were incubated at 35° C in a 5% carbon dioxide + […] atmosphere.
# The MIC is defined as the lowest concentration of compound at which no […] evidence of growth was observed when turbidity of the inoculated broth dilutions was compared with control tubes. […] Only a one-tube difference between the bactericidal and bacteriostatic concentrations was normally observed.
# Table 5 presents a comparison of the C10 and C12 free acids and their glyceryl derivatives, and Table 6 gives the corresponding ranges of activity.
# Standard solutions (1000 μg/ml) of three fatty acids and polyglycerol esters thereof were prepared as described in Example I. Also sucrose esters were prepared by transferring the weighed compounds (0.2 gm. dissolved in 1 ml absolute methanol) into 200 ml of sterile Trypticase Soy Broth (TSB). These standard solutions (1000 μg/ml) were twofold serially diluted with additional sterile broth to a concentration of 125 μg/ml. A 3.8 aliquot of each dilution was asceptically delivered into sterile screw-capped culture tubes. All tubes were incubated overnight at 36° C to insure sterility. The microorganisms used in this example were the same as those used in Example I.
# The inoculum, 0.05 ml of an 13-24 hour TSB culture (approximately 10^9 organisms/ml) was asceptically delivered into all dilutions of the compounds, mixed well, and incubated at 36° C. […]
# [2] = test system: Nocardia asteroides; test: MIC on mass basis (Example V procedure); format: cell-based
# Summary of the method: (§1)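 MIC was determined on a mass (μg/ml) basis rather than a molar basis against gram-negative and gram-positive organisms. Phenolic compounds were tested alone, combined with glycerol monolaurin (GML), and combined with GML plus calcium EDTA and BHA.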
# [3] = test system: Pseudomonas aeruginosa; test: MIC on mass basis (Example V procedure); format: cell-based
# Summary of the method: as §1
# [4] = test system: Streptococcus mutans; test: MIC on mass basis (Example V procedure); format: cell-based, Streptococcus mutans (ATCC 10441)
# Procedure: The essential procedure of Example I was followed with a series of phenolic compounds, with the exception that the test method was conducted on a mass (μg/ml) basis rather than a molecular (mol/ml) basis of the foregoing tests, since the long established phenol-coeffecient test is on a mass rather than molecular basis. Additionally, a different but closely related group of organisms were used in this test, in order to give a complete representative span on gram-negative, gram-positive and fungus organisms. Additionally, the phenolic derivatives chosen for test purposes include a number of derivatives which are presently accepted by the FDA as food-grade phenolic microbicides.
# The same procedure of Example V was repeated but with combinations of mono-laurin (GML).
# The procedure of Example V was repeated with combinations of glycerol mono-laurin (GML) and ethylenediamine tetraacetic acid (EDTA) as the calcium salt and in combination with BHA.
# [5] = test system: Corynebacterium sp.; test: MIC on mass basis (Example V procedure); format: cell-based
# [6] = test system: Streptococcus faecalis (Group D); test: MIC on mass basis (Example V procedure); format: cell-based
# [7] = test system: Streptococcus pyogenes; test: MIC on mass basis (Example V procedure); format: cell-based
# [8] = 60 minute reading, colony forming units (Examples VIII, X, XII); format: cell-based; conditions: Table 18; base line 2.2 × 10^6CFU
# Procedure: The results of this experiment are recorded in the 60 minute reading.
structure (smiles),measurement,setting,value
"CCCCCCCCCCCC(=O)OCC(O)CO (stereo not drawn) [GML, glycerol mono-laurin]",Activity of mono-laurin relative to mono-capric,[1],≤ 5.5 times
same,MIC,"[2]; Table 13, Nocardia asteroides",15.60 µg/mL
same,MIC,"[2]; Table 14, Nocardia asteroides",7.80 µg/mL
same,MIC,"[2]; Table 16, Nocardia asteroides, no unit in table",10
same,MIC of GML,"[2]; Table 17, EDTA 0",< 10 µg/mL
same,MIC of GML,"[2]; Table 17, EDTA 125",100 µg/mL
same,MIC of GML,"[2]; Table 17, EDTA 250",< 10 µg/mL
same,MIC of GML,"[2]; Table 17, EDTA 500",< 10 µg/mL
same,MIC of GML,"[2]; Table 17, EDTA 1,000",< 10 µg/mL
same,MIC of GML,"[2]; Table 17, EDTA 5,000",< 10 µg/mL
same,MIC of GML,"[2]; Table 17, EDTA 10,000",< 10 µg/mL
same,MIC,"[3]; Table 13, Pseudomonas aeruginosa","> 1,000 μg/ml"
same,MIC,"[3]; Table 14, Pseudomonas aeruginosa","> 1,000 μg/ml"
same,MIC,"[3]; Table 16, Pseudomonas aeruginosa, no unit in table","> 1,000"
same,MIC of GML,"[3]; Table 17, EDTA 0","> 10,000 μg/ml"
same,MIC of GML,"[3]; Table 17, EDTA 125","> 10,000 μg/ml"
same,MIC of GML,"[3]; Table 17, EDTA 250","> 10,000 μg/ml"
same,MIC of GML,"[3]; Table 17, EDTA 500","> 10,000 μg/ml"
same,MIC of GML,"[3]; Table 17, EDTA 1,000","> 10,000 μg/ml"
same,MIC of GML,"[3]; Table 17, EDTA 5,000",100 µg/mL
same,MIC of GML,"[3]; Table 17, EDTA 10,000",< 10 µg/mL
same,MIC,"[4]; Table 13, Streptococcus mutans",31.25 µg/mL
same,MIC,"[4]; Table 14, Streptococcus mutans",31.25 µg/mL
same,MIC,"[5]; Table 16, Corynebacterium sp., no unit in table",10
same,MIC of GML,"[5]; Table 17, EDTA 0",< 10 µg/mL
same,MIC of GML,"[5]; Table 17, EDTA 125",< 10 µg/mL
same,MIC of GML,"[5]; Table 17, EDTA 250",< 10 µg/mL
same,MIC of GML,"[5]; Table 17, EDTA 500",< 10 µg/mL
same,MIC of GML,"[5]; Table 17, EDTA 1,000",< 10 µg/mL
same,MIC of GML,"[5]; Table 17, EDTA 5,000",< 10 µg/mL
same,MIC of GML,"[5]; Table 17, EDTA 10,000",< 10 µg/mL
same,MIC,"[6]; Table 16, Streptococcus faecalis (Group D), no unit in table","> 1,000"
same,MIC of GML,"[6]; Table 17, EDTA 0","> 10,000 μg/ml"
same,MIC of GML,"[6]; Table 17, EDTA 125","> 10,000 μg/ml"
same,MIC of GML,"[6]; Table 17, EDTA 250","> 10,000 μg/ml"
same,MIC of GML,"[6]; Table 17, EDTA 500","> 10,000 μg/ml"
same,MIC of GML,"[6]; Table 17, EDTA 1,000","1,000 μg/ml"
same,MIC of GML,"[6]; Table 17, EDTA 5,000",< 10 µg/mL
same,MIC of GML,"[6]; Table 17, EDTA 10,000",< 10 µg/mL
same,MIC,"[7]; Table 16, Streptococcus pyogenes, no unit in table",10
same,MIC of GML,"[7]; Table 17, EDTA 0",< 10 µg/mL
same,MIC of GML,"[7]; Table 17, EDTA 125",< 10 µg/mL
same,MIC of GML,"[7]; Table 17, EDTA 250",< 10 µg/mL
same,MIC of GML,"[7]; Table 17, EDTA 500",< 10 µg/mL
same,MIC of GML,"[7]; Table 17, EDTA 1,000",< 10 µg/mL
same,MIC of GML,"[7]; Table 17, EDTA 5,000",< 10 µg/mL
same,MIC of GML,"[7]; Table 17, EDTA 10,000",< 10 µg/mL
same,60 Minute Reading,[8],9.7 × 10^5 CFU
